Source: US9365534B2, “Arylated camphenes, processes for their preparation and uses thereof” (Yissum Research Development Company of the Hebrew …, priority 2009, dated 2016)

Columns and labels:
[1] = molecular target: human CB1 receptor (Homo sapiens (Human), UniProt P21554); experiment: Membrane competition binding assay with [3H]-CP 55,940, CHO-CB1 membranes; conditions: CHO-CB1 cellular membranes, 2.5 nM [3H]-CP 55,940; read-out: Competition Binding Assay CB1 Receptor Ki
Source text: (§1) The cDNA clones for human HA-tagged CB1 and CB2 receptors were obtained from the Missouri S&T cDNA Resource Center (www.cdna.org) in cloning vector pcDNA3.1+. The vector containing the human CB2 receptor was transfected directly into CHO-KI cells obtained from ATCC. The HA-tagged human CB1 receptor sequence was subcloned into the pef4-V5-HisA vector with Kpn1 and Pme1 restriction enzymes and subsequently transfected into CHO-K1 cells. Cells were clonally isolated by limited dilution and screened by immunocytochemistry for expression of the HA tag.
(§2) Cells were maintained in DMEM/F12 media supplemented with 10% fetal bovine serum (FBS), 100 units/ml penicillin and 100 μg/ml streptomycin and 2 mM L-glutamine. Transfected cell lines were maintained with additional 150 ug/ml zeocin for pEF HA-CB1 transfected cells and 500 ug/ml G-418 for pcDNA HA-CB2 transfected cells (all reagents obtained from Invitrogen).
(§3) Cells were grown to confluence and harvested in ice cold phosphate buffered saline with 5 mM EDTA. Cells were spun at 200×g for 10 min and frozen at −80° C. until required. Cell pellets were thawed with cold 0.32 M sucrose and homogenised with a glass homogeniser. The homogenate was spun at 1000×g for 10 min at 4° C. and the supernatant spun in a Sorvall ultracentrifuge for 30 min at 100,000×g. The pellet was then washed in ice cold water and re-spun twice more. The final pellet was resuspended in 50 mM Tris pH 7.5, 0.5 mM EDTA. Protein concentration was determined using the Dc protein assay kit (BioRad, Hercules, Calif., USA).
(§4) Membranes (5-10 μg) were incubated with radioligand and a range of concentrations of test compounds in binding buffer (50 mM Tris pH 7.4, 5 mM MgCl2, 1 mM EDTA) with 0.5% (w/v) bovine serum albumin (BSA) (ICP Bio, New Zealand), at 30° C. for 60 min. Stock solutions of putative cannabinoid ligands were prepared in dimethyl sulfoxide to a concentration of 10 mM. Six different final concentrations of compounds were used ranging from 50 μM to 0.1 nM. […] Assays were terminated by addition of 2 ml ice cold binding buffer and filtration through GF/C filters (Whatman) pre-soaked in cold binding buffer, followed by two washes in the same buffer.
(§5) Radioactivity was determined by incubation of filters with Irgasafe scintillation fluid (PerkinElmer) and scintillation counting in a Wallac Trilux using Microbeta Trilux software. Data was analysed using the Prism 4.02 programme (GraphPad Software, San Deigo, Calif., USA).
(§6) All data was analyzed using Prism 4.02. For binding data the Ki was determined from IC50 values derived from competition binding data fitted with one site competition non-linear regression analysis by Prism 4.02 using the Kd values reported above.

[2] = system: closed head injury (CHI); experiment: Closed head injury (CHI) model, neurological severity score, Sabra mice; assay type: in vivo; conditions: for most effective dose (recovery, ΔNSS): Sabra mice, i.p. 1 h after CHI, followed 21 days
Protocol: The study was conducted according to the guidelines of the Institutional Animal Care Committee of the Hebrew University. Male Sabra mice weighing 35 to 50 g were used in all experiments. Animals were kept under controlled light conditions with a 12 h/12 h light/dark cycle. Experimental closed head injury (CHI) was induced using a modified weight drop device developed in our laboratory as described previously (Chen et al., 1996). At 1 h after CHI, the functional status of the mice was evaluated according to a set of 10 neurobehavioral tasks, namely the neurological severity score (NSS). This score is based on the ability of the mice to perform 10 different tasks (Beni-Adani et al., 2001) that evaluate their motor ability, balance, and alertness. One point is given for failing to perform a task. […] A score of 10 reflects maximal neurologic impairment, and a decrease of NSS during the recovery period indicates partial recovery of function.
Data was analyzed using the Prism 4.02 programme (GraphPad Software, San Deigo, Calif., USA). The data are expressed as mean±SEM and statistical significance was assessed with one way analysis of variance (ANOVA) followed by a Dunnett's post-hoc analysis for TNF-α levels. Nonparametric NSS values were compared between the two groups at each time point.
In this study four groups of mice were subjected to CHI (n=10/group and control n=9), after which the following agents were administered: • Group 1 (Control): Vehicle only (ethanol:cremophor:saline at ratio of 1:1:18), 1 h after CHI. • Group 2: HU-910, 0.1 mg/kg, dissolved in vehicle (1:1:18 ethanol:cremophor:saline), i.p. 1 h after CHI. • Group 3: HU-910, 1.0 mg/kg, dissolved in vehicle (1:1:18 ethanol:cremophor:saline), i.p. 1 h after CHI. • Group 4: HU-910, 10.0 mg/kg, dissolved in vehicle (1:1:18 ethanol:cremophor:saline), i.p. 1 h after CHI.
In this study four groups of mice were subjected to CHI (n=9/group), after which the following agents were administered: • Group 1 (Control): Vehicle only (ethanol:cremophor:saline at ratio of 1:1:18), 1 h after CHI. • Group 2: HU-910, 10 mg/kg, dissolved in vehicle (1:1:18 ethanol:cremophor:saline), i.p. 1 h after CHI. • Group 3: Specific CB2 antagonist SR144528 (N-[(1S)-endo-1,3,3-trimethylbicyclo[2.2.1]heptan-2-yl]-5-(4-chloro-3-methylphenyl)-1-(4-methylbenzyl)pyrazole-3 carboxamide), (see M. Rinaldi-Carmona, et al. J. Pharmacol. Exp. Ther. 284 (1998) 644-650), 1 mg/kg, i.p. 1 h after CHI. • Group 4: Specific CB2 antagonist (SR144528, N-[(1S)-endo-1,3,3-trimethylbicyclo[2.2.1]heptan-2-yl]-5-(4-chloro-3-methylphenyl)-1-(4-methylbenzy)pyrazole-3 carboxamide), 1 mg/kg, i.p. 1 h after CHI and HU-910 10 mg/kg administered 10 min after administration of antagonist.
In this study four groups of mice were subjected to CHI (n=7-8/group), after which the following agents were administered: • Group 1 (Control): Vehicle only (Dimethyl Sulfoxide (DMSO): Tween 80: Saline at ratio of 1:1:18), i.p. 1 h after CHI. • Group 2: HU-910, 10 mg/kg, dissolved in Vehicle, i.p. 1 h after CHI. • Group 3: Specific CB2 antagonist/inverse agonist AM630 (6-Iodo-2-methyl-1-[2-(4-morpholinyl)ethyl]-1H-indol-3-yl](4-methoxyphenyl)methanone) (Ross et al. 1999)), dissolved in Vehicle, 1 mg/kg, i.p. 1 h after CHI and HU-910, dissolved in Vehicle, 10 mg/kg administered 10 min after administration of antagonist/inverse agonist. • Group 4: Specific CB2 antagonist/inverse agonist AM630 (6-Iodo-2-methyl-1-[2-(4-morpholinyl)ethyl]-1H-indol-3-yl](4-methoxyphenyl)methanone), dissolved in Vehicle, 1 mg/kg, i.p. 1 h after CHI

[3] = molecular target: human CB2 receptor (Homo sapiens (Human), UniProt P34972); experiment: Membrane competition binding assay with [3H]-CP 55,940, CHO-CB2 membranes
Source text: as §1, §2, §3, §4, §5, §6

Chain of human CB1 receptor (P21554 whole entry): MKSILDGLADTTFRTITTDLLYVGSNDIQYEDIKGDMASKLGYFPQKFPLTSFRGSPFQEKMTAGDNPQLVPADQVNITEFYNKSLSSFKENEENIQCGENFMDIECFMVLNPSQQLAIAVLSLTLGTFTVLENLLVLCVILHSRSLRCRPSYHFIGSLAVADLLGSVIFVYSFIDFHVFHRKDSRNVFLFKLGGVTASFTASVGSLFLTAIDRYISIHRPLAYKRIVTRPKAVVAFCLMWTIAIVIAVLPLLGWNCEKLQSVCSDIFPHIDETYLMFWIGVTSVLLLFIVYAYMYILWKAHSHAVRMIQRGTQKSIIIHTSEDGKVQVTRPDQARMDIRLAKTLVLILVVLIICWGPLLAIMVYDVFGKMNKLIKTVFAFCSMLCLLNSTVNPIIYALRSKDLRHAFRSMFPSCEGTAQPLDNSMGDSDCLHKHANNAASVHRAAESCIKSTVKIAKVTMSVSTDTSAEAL

SMILES | Ki [1] [nM] | recovery, Neurological Severity Score (ΔNSS) ([2]; HU-914 5 mg/kg i.p. 1 h after CHI, starting at 3 days post injury, vs vehicle or 10 and 20 mg/kg) | recovery ΔNSS in the presence of SR144528 ([2]; SR144528 1 mg/kg i.p. 1 h after CHI, HU-914 5 mg/kg 10 min later, 24 h to 28 day) | most effective dose (recovery, ΔNSS) [2] [mg/kg] | Ki [3] [nM] | beneficial effect on ΔNSS in the presence of AM630 ([2]; AM630 1 mg/kg i.p. 1 h after CHI, HU-910 10 mg/kg 10 min later, 1 h to 28 days) | extent of recovery ΔNSS=NSS(1 h)−NSS(t) ([2]; HU-910 10 mg/kg i.p. 1 h after CHI, days 5 and 7 post injury, vs vehicle or 0.1 and 1 mg/kg) | beneficial effect on ΔNSS in the presence of SR144528 ([2]; SR144528 1 mg/kg i.p. 1 h after CHI, HU-910 10 mg/kg 10 min later)
CCCCCCC(C)(C)c1cc(OC)c(C2=C[C@H]3CC[C@]2(C(=O)O)C3(C)C)c(OC)c1 [HU-914, (1S,4R)-2-(2,6-dimethoxy-4-(2-methyloctan-2-yl)phenyl)-7,7-dimethylbicyclo[2.2.1]hept-2-ene-1-carboxylic acid] | > 50000 | significant greater recovery | abolished and reduced to a similar extent as in the control group | 5 | 1500 |  |  | 
CCCCCCC(C)(C)c1cc(OC)c(C2=C[C@H]3CC[C@]2(CO)C3(C)C)c(OC)c1 [HU-910, (1S,4R)-(2-(2,6-dimethoxy-4-(2-methyloctan-2-yl)phenyl)-7,7-dimethylbicyclo[2.2.1]hept-2-en-1-yl)methanol] | 1370 |  |  | 10 | 6 | reduced to a similar extent | significant greater recovery | reduced to a similar extent
